The assay has as its system isolated rat soleus nerve-muscle preparations. Briefly: Measurement of force in an in vitro model: recovery of nerve-stimulated contractile force after tubocurarine. The settings on record: 40 min, after 40 mins of compound exposure, tubocurarine (115 nM) for 90 minutes, read-out: Point increase (%): percentage increase of initial force that was restored; for activation at 50 µM: 50 μM of test compound; for activation at 25 µM: 25 μM of test compound; for activation at 10 µM: 10 μM of test compound; for activation at 100 µM: 100 μM of test compound. Here is the method:
In one aspect, the invention relates to a method for recovery of force in muscles with neuromuscular dysfunction, said method comprising administering a compound or a composition as defined herein to a subject in need thereof. The term “recovery of force in muscles with neuromuscular dysfunction” as used herein refers to the ability of a compound to recover contractile force in nerve-stimulated healthy rat muscle after exposure to submaximal concentration (115 nM) of tubocurarine for 90 minutes.
Recovery of force is quantified as the percentage of the force prior to tubocurarine that is recovered after addition of the compound. In one embodiment, said recovery of force is >5%, such as >10%, such as >15%, such as >20%, such as >25%, such as >30%, such as >35%.
The current disclosure relates to compounds that inhibit CIC-1 ion channels and increase muscle excitability and thereby improve muscle function in clinical conditions where muscle activation is failing. Such conditions result in loss of contractile function of skeletal muscle, weakness and excessive fatigue. In this series of experiments the compounds were tested for their ability to restore contractile function of isolated rat muscle when the neuromuscular transmission had been compromised akin to neuromuscular disorders.
Experimentally, soleus muscles from 4-5 week old rats were isolated with the motor nerve remaining attached. The nerve-muscle preparations were mounted in experimental setups that enabled electrical stimulation of the motor nerve. Stimulation of the motor nerve led to activation of the muscle fibres and ensuing force production that was recorded. The nerve-muscle preparations were also in these experiments incubated in the standard Krebs Ringer (see example 15) and the solution was heated to 30° C. and continuously equilibrated with a mixture of 95% O2 and 5% CO2, pH ~7.4.
After mounting the nerve-muscle preparation in the experimental setup, the contractile function of the muscle was initially assessed under the control conditions. Sub-maximal concentration of tubocurarine (115 nM), an acetylcholine receptor antagonist, was then added to the experimental bath to impose partial inhibition of the ability of the motor nerve to activate the muscle fibres. The experimental condition mimics the failing neuromuscular transmission in a range of neuromuscular disorders. After addition of tubocurarine the contractile force declined over the next 90 minutes to 10-50% of the control force. The test compound was then added to obtain the required compound concentration in the bath and the contractile force recovered was measured. To quantify the ability of the compound to restore force the percentage of the initial force that was restored was determined after 40 mins of compound exposure and the point increase is reported in Tables 3 to 7.

For 23 compounds, activation results are on record in patent US20260199273A1, “Compounds for the Treatment of Neuromuscular Disorders” (NMD PHARMA A/S, priority 2022, published 2026).

For `COc1cc2c(c(C(=O)O)c1F)OCCC2Cc1ccccc1` (centres unmarked) [Compound A-80, 4-Benzyl-7-fluoro-6-methoxy-8-chromancarboxylic acid], the activation at 50 µM came to 22%.

Turning to `O=C(O)c1c(Cl)c(F)cc2c1SCCC2` [Compound A-64, 7-Chloro-6-fluoro-3,4-dihydro-2H-1-benzothiopyran-8-carboxylic acid], the activation at 25 µM stood at 34%.

As to `Cc1c(Cl)cc2c(c1C(=O)O)OCC2` [Compound A-12, 5-Chloro-6-methyl-2,3-dihydro-1-benzofuran-7-carboxylic acid], the activation at 50 µM worked out at 19%.

As for `CN1CCCc2cc(F)c(Cl)c(C(=O)O)c21` [Compound A-77, 7-Chloro-6-fluoro-1-methyl-1,2,3,4-tetrahydro-8-quinolinecarboxylic acid], the activation at 10 µM came out at 18%.

For `CCOc1c(Cl)cc2c(c1C(=O)O)CCCC2` [Compound A-82, 3-Chloro-2-ethoxy-5,6,7,8-tetrahydro-1-naphthoic acid], the activation at 10 µM amounted to 61%.

For `O=C(O)c1c(F)c(I)cc2c1CCCC2` [Compound A-55, 2-Fluoro-3-iodo-5,6,7,8-tetrahydronaphthalene-1-carboxylic acid], the activation at 50 µM came to 42%.

Take `CN1CCCc2c1cc(Cl)c(F)c2C(=O)O` [Compound A-45, 7-Chloro-6-fluoro-1-methyl-1,2,3,4-tetrahydroquinoline-5-carboxylic acid]: the activation at 100 µM amounted to 38%.

Turning to `Cc1cc2c(c(C(=O)O)c1F)CCCO2` [Compound A-58, 6-Fluoro-7-methyl-3,4-dihydro-2H-1-benzopyran-5-carboxylic acid], the activation at 50 µM was 48%.

Consider `O=C(O)c1c(Cl)c(Cl)cc2c1CN(Cc1ccccc1)C2` [Compound A-68, 2-Benzyl-5,6-dichloro-2,3-dihydro-1H-isoindole-4-carboxylic acid], for which the activation at 100 µM amounted to 40%.

For the compound `O=C(O)c1c(F)c(C(F)(F)F)cc2c1CCCC2` [Compound A-60, 2-Fluoro-3-(trifluoromethyl)-5,6,7,8-tetrahydronaphthalene-1-carboxylic acid], the activation at 50 µM worked out at 21%.

Turning to `COc1c(F)cc2c(c1C(=O)O)C(Cc1ccccc1)CCO2` (centres unmarked) [Compound A-81, 4-Benzyl-7-fluoro-6-methoxy-5-chromancarboxylic acid], the activation at 50 µM was determined as 19%.

With `O=C(O)c1c(Cl)c(Br)cc2c1CCCC2` [Compound A-67, 3-bromo-2-chloro-5,6,7,8-tetrahydronaphthalene-1-carboxylic acid], the activation at 10 µM turned out to be 25%.

For `COc1c(Cl)cc2c(c1C(=O)O)CCCO2` [Compound A-79, 7-Chloro-6-methoxy-5-chromancarboxylic acid], the activation at 10 µM was found to be 34%.

For the compound `O=C(O)c1c2c(cc(Cl)c1OC(F)(F)F)CCC2` [Compound A-11, 6-Chloro-5-(trifluoromethoxy)-2,3-dihydro-1H-indene-4-carboxylic acid], the activation at 50 µM was 31%.

Regarding `O=C(O)c1c2c(cc(Cl)c1OCF)CCC2` [Compound A-7, 6-Chloro-5-(fluoromethoxy)-2,3-dihydro-1H-indene-4-carboxylic acid], the activation at 50 µM stood at 36%.

Regarding `O=C(O)c1c(Br)c(Cl)cc2c1CCCC2` [Compound A-66, 2-Bromo-3-chloro-5,6,7,8-tetrahydronaphthalene-1-carboxylic acid], the activation at 10 µM was 25%.

Turning to `O=C(O)c1c(Cl)c(F)cc2c1CCC2` [Compound A-62, 5-Chloro-6-fluoro-2,3-dihydro-1H-indene-4-carboxylic acid], the activation at 25 µM came out at 14%.

For `O=C(O)c1c(F)c(Cl)cc2c1OCC2` [Compound A-43, 5-Chloro-6-fluoro-2,3-dihydro-1-benzofuran-7-carboxylic acid], the activation at 50 µM came out at 25%.

As to `O=C(O)c1c(F)c(Cl)cc2c1CCN2Cc1ccccc1` [Compound A-76, 1-Benzyl-6-chloro-5-fluoro-4-indolinecarboxylic acid], the activation at 25 µM was 45%.

Regarding `Cc1cc2c(c(C(=O)O)c1Cl)CCCCC2` [Compound A-34, 2-chloro-3-methyl-6,7,8,9-tetrahydro-5H-benzo[7]annulene-1-carboxylic acid], the activation at 50 µM was determined as 20%.

On to `O=C(O)c1c(F)c(Cl)cc2c1OCCC2Cc1ccccc1` (centres unmarked) [Compound A-78, 4-Benzyl-6-chloro-7-fluoro-8-chromancarboxylic acid], for which the activation at 25 µM is 35%.

As to `Cc1c(Br)cc2c(c1C(=O)O)CCC2` [Compound A-2, 6-Bromo-5-methyl-2,3-dihydro-1H-indene-4-carboxylic acid], the activation at 50 µM is 19%.

`CC1(C)CCc2cc(F)c(Cl)c(C(=O)O)c2O1` [Compound A-75, 7-Chloro-6-fluoro-2,2-dimethyl-8-chromancarboxylic acid]: the activation at 10 µM was determined as 10%.
